Residues, ends and D or L forms follow the SMILES beside them. No end group written: not given here. *: point of attachment. Succinimide(1-Et,3-yl) = CCN1C(=O)CC(*)C1=O

This is an account of results in patent US10040838B2, “CRHR2 peptide agonists and uses thereof” (JANSSEN PHARMACEUTICA NV, priority 2008, dated 2018).

In this experiment the target is T1, human CRHR2 (Homo sapiens, UniProt Q13324).
T1 construct: expressed in transfected cells
T1 sequence (Q13324 1-411): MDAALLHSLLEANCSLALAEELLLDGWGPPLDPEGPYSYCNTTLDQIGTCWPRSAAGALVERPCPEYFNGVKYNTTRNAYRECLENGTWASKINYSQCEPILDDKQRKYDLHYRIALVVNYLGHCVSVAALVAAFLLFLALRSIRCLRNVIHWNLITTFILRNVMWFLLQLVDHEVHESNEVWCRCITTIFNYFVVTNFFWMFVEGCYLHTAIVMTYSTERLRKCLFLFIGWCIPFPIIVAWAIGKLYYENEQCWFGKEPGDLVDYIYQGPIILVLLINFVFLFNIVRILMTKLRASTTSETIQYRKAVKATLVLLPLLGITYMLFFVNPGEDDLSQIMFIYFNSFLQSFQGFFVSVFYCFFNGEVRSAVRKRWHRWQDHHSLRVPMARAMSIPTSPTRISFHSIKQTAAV
Nature of the experiment: cAMP assay in h-CRHR2 transfected SK-N-MC cells. The experiment is classed as cell-based. The settings on record: Table 13; h-SCP control pA50 minus test compound pA50 within same assay batch. The protocol: The concentration required for 50% maximum effect (A50) was 0.4 nM.
Human CRHR1 (accession number X72304) or CRHR2 (accession number U34587) were cloned into pcDNA3.1/Zeo expression vector and stably transfected into SK-N-MC cells by electroporation. Cells were maintained in MEM w/Earl's Salt with 10% FBS, 50 I.U. penicillin, 50 μg/ml streptomycin, 2 mM L-glutamine, 1 mM sodium pyruvate and 0.1 mM nonessential amino acids, 600 μg/ml G418. Cells were grown at 37° C. in 5% CO2.
Cells were plated in 96-well tissue culture dishes (Biocoat from BD Biosciences) overnight at 50,000 cell/well. Cells were washed with PBS then resuspended in DMEM F-12 without phenol red, containing 10 μM isobutylmethylxanthine (IBMX). Cells were incubated with the peptides at concentrations ranging from 1 pM to 10 μM for 60 min at 37° Celsius. […] Forskolin (10 μM), a direct stimulant of adenylate cyclase, was used as positive control. The assays were stopped by the addition of 0.5 M HCl and mixing by orbital rotation for 2 h at 4° Celsius.
To assess the activity of the inventive peptide at the CRHR2, an intracellular cAMP measurement test using a Flash plate radioactive assay (Catalog No. Cus56088; Perkin Elmer, MA, U.S.A.) was employed.
Transfected SK-N-MC cells were plated in 96-well Biocoat tissue culture dishes (BD Biosciences, San Jose, Calif., U.S.A) overnight at 50,000 cell/well. Cells were first washed with PBS and then suspended with DMEM/F-12 without phenol red, containing […]. Suspended cells were transferred into a 96-well flash plate coated with scintillant fluid. Cells were incubated with peptides ranging from […], for 60 min, at 37° Celsius. Forskolin at 10 μM was used as positive control. After ligand stimulation, cells were lysed by the addition of 0.5M HCl and mixed by orbital rotation for 2 h at 4° Celsius in order to release intracellular cAMP into the media.
Media containing released intracellular cAMP was transferred to a 96-well flash plate coated with scintillant fluid containing an anti-cAMP antibody. In this assay, intracellular cAMP competes with ^125I-labeled cAMP binding to the antibody. To generate a standard curve, cAMP ranging from 2.5 to 250 pmoles/ml was included in the experiment. [^125I]-cAMP was measured on a TopCount scintillation counter (Perkin Elmer, MA, U.S.A).
Individual agonist concentration-response curve data were fitted to the Hill equation, see formula below, using GraphPad Prism (Graphpad Software, La Jolla, Calif., U.S.A.), to provide estimates of agonist concentration needed to generate one-half maximal response (A50), and the maximal asymptote (α) and Hill slope (nH) parameters. In this equation, [A] is the agonist concentration and E is the measured effect:
For display purposes the mean fitted parameter estimates were used to generate a single E/[A] curve shown superimposed on the mean experimental data. Potency estimates for agonists, pA50, are expressed as the negative logarithm of the midpoint of each curve and listed with their standard error of measurement (SEM). Logarithm base 10 of the agonist dose ratio (Log DR) values were calculated by subtraction of the test compound pA50 value from the corresponding h-SCP (SEQ ID NO:1) control pA50 value within the same assay batch. The SEM values of the Log DR values are given by the square root of the sum of the squared SEM values of the h-SCP (SEQ ID NO:1) control and test compound pA50 values.
Human and rat peptides (see Table 10) were used on the stimulation of h-CRHR1 or h-CRHR2 transfected SK-N-MC cells in the cAMP flash plate assay. Peptides were incubated for 1 hr at 37° Celsius. Curves were calculated using non-linear regression sigmoidal concentration-response analysis calculation in GraphPad Prism. The so obtained pA50 values are shown in Table 11 in addition to literature values. […]

Consider `CC[C@H](C)[C@H](NC(=O)[C@H](CCC(N)=O)NC(=O)[C@H](C)NC(=O)[C@H](CCSC)NC(=O)[C@H](CC(C)C)NC(=O)[C@H](CSC1CC(=O)N(CC)C1=O)NC(=O)[C@H](C)NC(=O)[C@H](CC(N)=O)NC(=O)[C@H](C)NC(=O)[C@H](C)NC(=O)[C@H](C)NC(=O)[C@H](CCC(N)=O)NC(=O)[C@H](C)NC(=O)[C@H](CCCNC(=N)N)NC(=O)[C@H](CC(C)C)NC(=O)[C@H](CC(N)=O)NC(=O)[C@H](CCCCN)NC(=O)[C@H](C)NC(=O)[C@H](CCCCN)NC(=O)[C@H](C)NC(=O)[C@@H](NC(=O)[C@H](CC(N)=O)NC(=O)[C@H](Cc1ccccc1)NC(=O)[C@H](CC(C)C)NC(=O)[C@H](CC(C)C)NC(=O)[C@H](CC(N)=O)NC(=O)[C@H](CCSC)NC(=O)[C@@H](NC(=O)[C@H](CC(N)=O)NC(=O)[C@@H](NC(=O)[C@@H]1CCCN1C(=O)[C@@H](NC(=O)[C@H](CC(=O)O)NC(=O)[C@H](CC(C)C)NC(=O)[C@H](CO)NC(=O)[C@H](CC(C)C)NC(=O)[C@@H](NC(=O)[C@H](Cc1ccccc1)NC(=O)[C@H](CCCCN)NC(=O)[C@@H](N)[C@@H](C)O)[C@@H](C)O)C(C)C)[C@@H](C)O)[C@@H](C)CC)[C@@H](C)CC)C(N)=O` (stereo partly drawn) [SEQ ID NO: 43, TKFTLSLDVPTNIMNLLFNIAKAKNLRAQAAANAC(-NES) LMAQI-NH2] (H-TKFTLSLDVPTNIMNLLFNIAKAKNLRAQAAANAC(Succinimide(1-Et,3-yl))LMAQI-NH2; N-terminus assumed), for which the “Log DR” value is given as −0.32.

Regarding `CC[C@H](C)[C@H](NC(=O)[C@H](CCC(N)=O)NC(=O)[C@H](C)NC(=O)[C@H](CCSC)NC(=O)[C@H](CC(C)C)NC(=O)[C@H](Cc1c[nH]cn1)NC(=O)[C@H](C)NC(=O)[C@H](CC(N)=O)NC(=O)[C@H](C)NC(=O)[C@H](C)NC(=O)[C@H](C)NC(=O)[C@H](CCC(N)=O)NC(=O)[C@H](C)NC(=O)[C@H](CCCNC(=N)N)NC(=O)[C@H](CC(C)C)NC(=O)[C@H](CC(N)=O)NC(=O)[C@H](CCCCN)NC(=O)[C@H](C)NC(=O)[C@H](CCCCN)NC(=O)[C@H](C)NC(=O)[C@@H](NC(=O)[C@H](CC(N)=O)NC(=O)[C@H](Cc1ccccc1)NC(=O)[C@H](CSC1CC(=O)N(CC)C1=O)NC(=O)[C@H](CC(C)C)NC(=O)[C@H](CC(N)=O)NC(=O)[C@H](CCSC)NC(=O)[C@@H](NC(=O)[C@H](CC(N)=O)NC(=O)[C@@H](NC(=O)[C@@H]1CCCN1C(=O)[C@@H](NC(=O)[C@H](CC(=O)O)NC(=O)[C@H](CC(C)C)NC(=O)[C@H](CO)NC(=O)[C@H](CC(C)C)NC(=O)[C@@H](NC(=O)[C@H](Cc1ccccc1)NC(=O)[C@H](CCCCN)NC(=O)[C@@H](N)[C@@H](C)O)[C@@H](C)O)C(C)C)[C@@H](C)O)[C@@H](C)CC)[C@@H](C)CC)C(N)=O` (stereo partly drawn) [SEQ ID NO: 53, TKFTL SLDVP TNIMN LC(-NES)FNI AKAKN LRAQA AANAH LMAQI-NH2] (H-TKFTLSLDVPTNIMNLC(Succinimide(1-Et,3-yl))FNIAKAKNLRAQAAANAHLMAQI-NH2; N-terminus assumed), the “Log DR” value is about 2.22.

Take “TKFTLSLDVPTNIMNLLFNIAKAKCLRAQAAANAHLMAQI-NH2 [SEQ ID NO: 26, TKFTLSLDVPTNIMNLLFNIAKAKCLRAQAAANAHLMAQI-NH2]”: the “Log DR” value was 0.08.

As to “TKFTLSLDVPTNIMNLLFNIAKAKNCRAQAAANAHLMAQI-NH2 [SEQ ID NO: 27, TKFTLSLDVPTNIMNLLFNIAKAKNCRAQAAANAHLMAQI-NH2]”, the “Log DR” value was determined as 0.76.

`CC[C@H](C)[C@H](NC(=O)[C@H](CCC(N)=O)NC(=O)[C@H](C)NC(=O)[C@H](CCSC)NC(=O)[C@H](CC(C)C)NC(=O)[C@H](Cc1c[nH]cn1)NC(=O)[C@H](C)NC(=O)[C@H](CSC1CC(=O)N(CC)C1=O)NC(=O)[C@H](C)NC(=O)[C@H](C)NC(=O)[C@H](C)NC(=O)[C@H](CCC(N)=O)NC(=O)[C@H](C)NC(=O)[C@H](CCCNC(=N)N)NC(=O)[C@H](CC(C)C)NC(=O)[C@H](CC(N)=O)NC(=O)[C@H](CCCCN)NC(=O)[C@H](C)NC(=O)[C@H](CCCCN)NC(=O)[C@H](C)NC(=O)[C@@H](NC(=O)[C@H](CC(N)=O)NC(=O)[C@H](Cc1ccccc1)NC(=O)[C@H](CC(C)C)NC(=O)[C@H](CC(C)C)NC(=O)[C@H](CC(N)=O)NC(=O)[C@H](CCSC)NC(=O)[C@@H](NC(=O)[C@H](CC(N)=O)NC(=O)[C@@H](NC(=O)[C@@H]1CCCN1C(=O)[C@@H](NC(=O)[C@H](CC(=O)O)NC(=O)[C@H](CC(C)C)NC(=O)[C@H](CO)NC(=O)[C@H](CC(C)C)NC(=O)[C@@H](NC(=O)[C@H](Cc1ccccc1)NC(=O)[C@H](CCCCN)NC(=O)[C@@H](N)[C@@H](C)O)[C@@H](C)O)C(C)C)[C@@H](C)O)[C@@H](C)CC)[C@@H](C)CC)C(N)=O` (stereo partly drawn) [SEQ ID NO: 44, TKFTLSLDVPTNIMNLLFNIAKAKNLRAQAAAC(-NES)AH LMAQI-NH2] (H-TKFTLSLDVPTNIMNLLFNIAKAKNLRAQAAAC(Succinimide(1-Et,3-yl))AHLMAQI-NH2; N-terminus assumed): the “Log DR” value is given as about 1.97.

Consider `CC[C@H](C)[C@H](NC(=O)[C@H](CCC(N)=O)NC(=O)[C@H](C)NC(=O)[C@H](CCSC)NC(=O)[C@H](CC(C)C)NC(=O)[C@H](Cc1c[nH]cn1)NC(=O)[C@H](C)NC(=O)[C@H](CC(N)=O)NC(=O)[C@H](C)NC(=O)[C@H](C)NC(=O)[C@H](C)NC(=O)[C@H](CCC(N)=O)NC(=O)[C@H](C)NC(=O)[C@H](CCCNC(=N)N)NC(=O)[C@H](CC(C)C)NC(=O)[C@H](CC(N)=O)NC(=O)[C@H](CCCCN)NC(=O)[C@H](C)NC(=O)[C@H](CCCCN)NC(=O)[C@H](C)NC(=O)[C@H](CSC1CC(=O)N(CC)C1=O)NC(=O)[C@H](CC(N)=O)NC(=O)[C@H](Cc1ccccc1)NC(=O)[C@H](CC(C)C)NC(=O)[C@H](CC(C)C)NC(=O)[C@H](CC(N)=O)NC(=O)[C@H](CCSC)NC(=O)[C@@H](NC(=O)[C@H](CC(N)=O)NC(=O)[C@@H](NC(=O)[C@@H]1CCCN1C(=O)[C@@H](NC(=O)[C@H](CC(=O)O)NC(=O)[C@H](CC(C)C)NC(=O)[C@H](CO)NC(=O)[C@H](CC(C)C)NC(=O)[C@@H](NC(=O)[C@H](Cc1ccccc1)NC(=O)[C@H](CCCCN)NC(=O)[C@@H](N)[C@@H](C)O)[C@@H](C)O)C(C)C)[C@@H](C)O)[C@@H](C)CC)C(N)=O` (stereo partly drawn) [SEQ ID NO: 51, TKFTL SLDVP TNIMN LLFNC(-NES) AKAKN LRAQA AANAH LMAQI-NH2] (H-TKFTLSLDVPTNIMNLLFNC(Succinimide(1-Et,3-yl))AKAKNLRAQAAANAHLMAQI-NH2; N-terminus assumed), for which the “Log DR” value came out at 0.68.

As for “TKFTLSLDVPTNIMNLLFNICKAKNLRAQAAANAHLMAQI-NH2 [SEQ ID NO: 22, TKFTLSLDVPTNIMNLLFNICKAKNLRAQAAANAHLMAQI-NH2]”, the “Log DR” value turned out to be 0.52.

For “TKFTLSLDVPTNIMNLLFNIAKAKNLRAQACANAHLMAQI-NH2 [SEQ ID NO: 32, TKFTLSLDVPTNIMNLLFNIAKAKNLRAQACANAHLMAQI-NH2]”, the “Log DR” value came out at 0.11.

“TKFTLSLDVPTNIMNLCFNIAKAKNLRAQAAANAHLMAQI-NH2 [SEQ ID NO: 18, TKFTLSLDVPTNIMNLCFNIAKAKNLRAQAAANAHLMAQI-NH2]”: the “Log DR” value is reported as 1.11.
